# From patent US20090142363A1, “CYTOTOXIC T-CELL EPITOPE PEPTIDE AND USE THEREOF” (priority 2005, published 2009)
# No end group written: not given here.
# Columns and labels:
# [1] = system: PBMCs of healthy adults reactive to the anti-HLA-A*24 antibody; test: Induction of specific CTLs from PBMCs, method for quantifying cells producing intracellular IFNγ; assay type: cell-based, human; parameters: key to specific CTL induction, cytokine quantification method: ∘: “open circle” indicates that the use of a candidate peptide enabled specific CTLs to be induced; x: “cross” indicates that specific CTLs was unable to be induced; details: for specific CTL induction confirmed by CD8-positive, IFNγ-positive cells versus HIV peptide: donor ID*24-8, FIG. 3a-d; for peptide-specific cytokine production in PBMCs derived from ten people with HLA-A*24 molecule: summary of Table 2
# Protocol: This induction method induces CTLs by adding peptides to culture media of PBMCs. Peptides are presented on antigen-presenting cells present among PBMCs, such as dendritic cells, B cells, macrophages, and certain types of T cells, whereby CTL precursor cells in PBMCs are stimulated to proliferate.
# Peripheral blood collected from healthy adults that were reactive to the anti-HLA-A*24 antibody was centrifuged at 3,000 rpm for 5 to 10 minutes. The resulting supernatant plasma was collected. The non-plasma portion was processed according to a conventional method to isolate PBMCs. The characteristic of the present method is the addition of several % of plasma to an induction medium. In the present invention, a favorable result was obtained by adding 5% plasma. The medium is prepared by adding appropriate additives and antibiotics to a medium commonly used for cell culture. The CTL induction medium used in the present invention was RPMI1640 Hepes modify (Sigam) supplemented with 2-mercapotethanol, L-glutamine, and the antibiotics streptomycin and penicillin. In addition to these, insulin, transferrin, selenious acid, pyruvic acid, human serum albumin, solution of non-essential amino acids, and the like may be added. 1 to 3×10^6 PBMCs were suspended in 1 to 2.5 ml of the culture medium. A candidate peptide was added to the cells at a concentration of 1 to 20 μg/ml. The concentration of peptide can be altered depending on the solubility of the peptide. The peptide was added at 10 μg/ml. After two days, IL-2 was added at a final concentration of 20 to 100 U/ml. Round-bottomed culture dishes that allow the exchange of carbon dioxide gas are preferably used to co-culture PBMCs with peptides. In the context of the present invention, 14-ml round-bottomed polypropylene tubes (Becton Dikinson) or 96-well U-bottomed cell culture microtest plates (Becton Dikinson) were used. The adenovirus-specific CTLs were confirmed after about two and four weeks of culture. The cells were stimulated again with the peptide at 10 μg/ml after about two weeks of culture. When the induction of adenovirus-specific CTLs was confirmed, the cells were further stimulated with peptide-pulsed antigen-presenting cells to establish CTL lines.
# Approximately 1/10 to all of the cells induced by the above-described method were transferred into 96-well U-bottomed cell culture microtest plates, and the peptide used for the induction was added thereto at a final concentration of 0.01 to 0.05 μg/ml. Then, an intracellular protein transport inhibitor (for example, brefeldin A, monensin, or such) was added, and the cells were cultured in a 5% CO2 incubator at 37° C. for 5 to 16 hours. After culture, the cells were washed, and phycoerythrin (PE)-labeled MHC-tetramer reagent and phycoerythrin-Cy5(PC5)-labeled CD8 antibody (Beckman Coulter) were added thereto. The resulting mixture was allowed to stand at room temperature for 15 to 30 minutes. After washing, the cells were fixed with 4% formaldehyde at 4° C. for 15 minutes and washed with an excess amount of washing solution. After membrane permeabilization treatment with 0.1% saponin, an FITC-labeled anti-IFNγ antibody (Beckman Coulter) was added, and reacted at room temperature for 15 to 30 minutes. After washing, the proportion of IFNγ-positive cells in T cells or MHC-tetramer reagent-positive cells was determined using a flow cytometer.
# PBMCs derived from ten people with HLA-A*24 molecule were tested using 10 types of peptides. […] Thus, these six types of candidate epitope peptides serve as adenovirus-specific CTL epitope peptides. Since the adenovirus-specific CTL epitope peptides have the HLA-A*24-binding motif, they are likely to be HLA-A*2402-restricted epitope peptides, which are carried by 60% or more of the Japanese people. In the context of the results described above, MHC-tetramer reagents were synthesized using five types of epitope peptides, and their utility was tested.
# [2] = system: CTLs with target cells expressing HLA-A*24 molecules; test: Confirmation of CTLs by ELISPOT assay (IFNγ spots); assay type: cell-based, human; details: FIG. 4
# Protocol: A commercially available ELISPOT assay kit (for example, MABTECH Co.) may be purchased, and the assay can be performed according to the manufacturer's protocol. Alternatively, the assay may also be carried out by the following procedure. 96-well MultiScreen-HA plates (Millipore Co.) were coated with an anti-IFNγ monoclonal antibody (R&D Systems Co.) at 4° C. for overnight. Each well was washed with PBS. Target cells were plated into each well. Any cells expressing HLA-A*24 molecules on their surface can be used as the target cells. For example, T2-A24, a cultured cell which a gene of HLA-A*24 molecule is introduced into a 174CEM.T2 cell, can be used. Alternatively, EBV-infected LCLs expressing HLA-A*24 molecules on their surface can be used as the target cells. These target cells were added into each well with a candidate peptide for adenovirus-specific CTL epitopes or a negative control (HIV) peptide. The mixtures were allowed to stand at room temperature for 30 minutes. Then, an adequate number of CTLs were added, and the mixtures were cultured in a 5% CO2 incubator at 37° C. for 20 hours. CTLs that responded to the candidate epitope peptide secreted IFNγ during this culture period, and the IFNγ bound to the anti-IFNγ monoclonal antibody that was coated on the plates. After culturing was completed, the plates were washed with PBS containing 0.05% Tween-20. Then, an anti-IFNγ polyclonal antibody (Genzyme Co.) and peroxidase-labeled goat anti-rabbit IgG serum were allowed to react in this order at room temperature for 90 minutes each. Furthermore, 3-amino-9-ethylcarbasole (Sigma), a peroxidase substrate, and 0.1M sodium acetate buffer (pH 5.0) containing 0.015% H2O2 was added to each well, and the plates were incubated at room temperature for 40 minutes to visualize the IFNγ spots. The spots were counted under a stereomicroscope.
# The spots were counted under a stereomicroscope, and were plotted on a graph.
Sequence,"specific CTL induction, cytokine quantification method ([1]; donor ID *24-1)","specific CTL induction, cytokine quantification method ([1]; donor ID *24-2)","specific CTL induction, cytokine quantification method ([1]; donor ID *24-3)","specific CTL induction, cytokine quantification method ([1]; donor ID *24-5)","specific CTL induction, cytokine quantification method ([1]; donor ID *24-8)","specific CTL induction, cytokine quantification method ([1]; donor ID *24-10)","specific CTL induction, cytokine quantification method ([1]; donor ID *24-11)","specific CTL induction, cytokine quantification method ([1]; donor ID *24-12)","specific CTL induction, cytokine quantification method ([1]; donor ID *24-13)","specific CTL induction, cytokine quantification method ([1]; donor ID *24-14)","specific CTL induction confirmed by CD8-positive, IFNγ-positive cells versus HIV peptide [1]",peptide-specific cytokine production in PBMCs derived from ten people with HLA-A*24 molecule [1],IFNγ spots in ELISPOT assay compared with the negative control (HIV) peptide [2]
TYFNLGNKF [TYF],x,∘,x,x,∘,x,x,x,x,x,induced specific CTLs,induce cytokine production in a peptide-specific manner,IFNγ spots were observed
VYSGSIPYL,x,∘,x,x,∘,x,x,x,x,x,induced specific CTLs,induce cytokine production in a peptide-specific manner,IFNγ spots were observed
